Data: patent US20150159169A1, “Plants Tolerant to HPPD Inhibitor Herbicides” (Bayer CropScience AG, priority 2009, published 2015)
“And” between values parts separate entries of the source, which are not always exact repeats. Equal values may be shown once. “Also recorded” adds a separate entry of the source.

Tests used:
[1] = tested on: T1 tobacco plants containing FMP27e (Kordia algicida HPPD FMP27); assay: Glasshouse spray trial, % injury; type: in vivo, Nicotiana tabacum; details: 7DAT, 100 gAI/ha spray
Procedure: (§1) T0 Tobacco plants containing either the gene from Arabidopsis coding for HPPD or the gene FMP27e from Kordia algicida coding for FMP27 HPPD, mentioned above (Example 3), were transferred to the glasshouse (28/20° C.), to develop further and produce seeds. Those seeds were harvested and put on soil (ED73 mixed with sand and osmocote Pro) to germinate in the glasshouse (28/20° C.). Three to four weeks later, plantlets were transferred to single pots containing the soil mentioned above. Two weeks later, plants of a size 4-6 cm diameter were sprayed with either • tembotrione at 100 gAI/ha prepared from a WP20 (wettable powder 20%) formulation supplemented with ammonium sulfate and methyl ester raps oil, or • isoxaflutole at 100 gAI/ha prepared from a WP20 formulation supplemented with ammonium sulfate and methyl ester raps oil, or • bicyclopyrone at 100 gAI/ha prepared from a WP20 formulation supplemented with ammonium sulfate and methyl ester raps oil, or • “blind formulation” made from a WP20 formulation without active ingredient (AI) supplemented with ammonium sulfate and methyl ester raps oil, and were then transferred to a growth chamber with adequate light conditions (20000 Lux).
(§2) Table 6: Wild type tobacco plants (A) and T1 populations of tobacco events containing alternatively, the expression cassettes described above having the promoter CaMV 35S, the sequence coding for OTP and the sequence coding for Arabidopsis HPPD (B) or the promoter CaMV35S, the sequence encoding OTP, and the sequence FMP27e coding for the HPPD FMP27 (C). Assessments of herbicidal damage at 7 days after application (DAT) per spray with 100 g AI/ha of tembotrione or isoxaflutole supplemented with ammonium sulfate and methyl ester raps oil. […] Plants belonging to categories (B) and (C) have not been selected for the presence of the respective transgene prior to the herbicide application.

[2] = tested on: wild type tobacco plants; assay: Glasshouse spray trial, % injury; type: in vivo, Nicotiana tabacum; details: 7DAT, 100 gAI/ha spray; individual WT plants; 100% = bleaching as wild type
Procedure: as §1, §2

[3] = tested on: T1 tobacco plants containing Arabidopsis HPPD; assay: Glasshouse spray trial, % injury; type: in vivo, Nicotiana tabacum; details: 7DAT, 100 gAI/ha spray
Procedure: as §1, §2

[4] = tested on: T0 rice plants containing FMP27e; assay: Rice glasshouse response to tembotrione, injury classes; type: in vivo; details: 100 g AI/ha, 7 DAT
Procedure: (§3) T0 rooted plantlets (either selected on phosphinothricin alone or on phosphinothricin supplemented with tembotrione) were transferred to soil in the glasshouse. Following an acclimation period, sufficiently grown plants were treated with the different HPPD inhibitor herbicides. As an example, T0 plants were sprayed with tembotrione of formulation type WP20 (100 g AI/ha) supplemented with ammonium sulfate and methyl ester raps oil. Seven days after the spray application, the symptoms due to the application of the herbicide were evaluated and compared the symptoms observed on wild type plants submitted to the same treatment.
(§4) The plants were classified in three categories based on the phenotype developed in response to the herbicide seven days after the treatment.

[5] = tested on: T0 rice plants containing AtHPPD; assay: as above; type: in vivo; details: 100 g AI/ha, 7 DAT
Procedure: as §3, §4

[6] = tested on: wild type rice plants; assay: as above; type: in vivo; details: 100 g AI/ha, 7 DAT; no transgene
Procedure: as §3, §4

[7] = tested on: rice shoots containing FMP27e; assay: Bleaching of rice shoots on MS/2 with tembotrione; type: cell-based; details: 2 weeks
Procedure: (§5) Rice transformation is achieved using methods well known in the art. Briefly, the Agrobacterium tumefaciens mediated transformation of rice was performed using immature embryos, from the restorer line 6G4317. Briefly, panicles from donor plants were harvested 8-12 days after pollination. The lemma of the immature seed was removed. Seeds were thereafter sterilized using a NaOCl based solution and Tween. The seeds were preinduced with […]. Agrobacterium tumefaciens cells are then co-cultivated with the preinduced seeds in presence of acetosyringone for 4 days at 24° C. in the dark. Thereafter, coleoptile from embryos are removed and washed, then put on a media supplemented with phosphinothricin for 3 weeks at 28° C. under a photoperiod rhythm of 16 hours. Then the growing calli were cut off from the embryos, and transferred to fresh media containing triacillin, phosphinothricin, L-proline and copper (II) sulfate.
(§6) For each callus-line and per Tembotrione concentration, 3 shoots, and randomly isolated from different callus pieces, were transferred to MS/2 with Tembotrione. As a general rule, transfer of the shoots from regeneration medium to MS/2 occurred 9 weeks after calli had been put on regeneration medium.
(§7) Cultures were incubated at 26.5° C. (16 hrs. photoperiod) and evaluation of symptoms occurred 2 weeks later.
(§8) New developing leaves of the shoots transferred have been scored on the basis of bleaching and categorized in 3 groups:
(§9) a) no bleaching b) intermediate bleaching c) complete bleaching
(§10) Within the category Intermediate bleaching′ a distinction has been made between shoots having new leaves showing only very little bleaching symptoms and thus tending to green leaves, and shoots with new leaves almost completely bleached.

[8] = tested on: rice shoots containing AtHPPD; assay: Bleaching of rice shoots on MS/2 with tembotrione; type: cell-based; details: 2 weeks
Procedure: as §5, §6, §7, §8, §9, §10

[9] = tested on: soybean events expressing the FMP27 HPPD protein; assay: Soybean greenhouse response to tembotrione; type: in vivo; details: 100 g AI/ha, ten days after application; eight events
Procedure: Plants containing the transgene were then sprayed with HPPD inhibitor herbicides, as for example with tembotrione at a rate of 100 g AI/ha. Ten days after the application the symptoms due to the application of the herbicide were evaluated and compared to the symptoms observed on wild type plants under the same conditions. Eight events expressing the FMP27 HPPD protein have been generated from the green shoots of above and were transferred to the greenhouse. Four weeks after acclimation, i.e. plants at a developmental stage of 3-4 internodes were treated with 100 g AI/ha tembotrione prepared from a WP 20 formulation supplemented with ammonium sulfate and methyl ester raps oil. Ten days after application, the symptoms caused by the application of the HPPD inhibitor herbicide were evaluated and compared to the symptoms observed on treated non-transgenic wild-type soybean plants.

CS(=O)(=O)c1ccc(C(=O)C2C(=O)CCCC2=O)c(Cl)c1COCC(F)(F)F [Tembotrione, 2-[2-chloro-4-(methylsulfonyl)-3-[(2,2,2,-tri-fluoroethoxy)methyl]benzoyl]-1,3-cyclo-hexanedione]
% injury ([1]; line 121, individual T1 plants): 0% (4×) and 5% (3×) and 10% (6×)
% injury ([1]; line 129, individual T1 plants): 0% (2×) and 5% (2×) and 10% (2×) and 15% (2×) and 30% (2×)
% injury ([1]; line 218, individual T1 plants): 0% (11×) and 5% (4×)
% injury [2]: 100%
% injury ([3]; line 252, individual T1 plants): 30% and 40% (3×) and 50% and 60% (2×) and 70% (2×) and 75% (3×) and 80%
% injury ([3]; line 258, individual T1 plants): 100% (5×) and 30%
% injury ([3]; line 327, individual T1 plants): 10% and 20% (2×) and 40% and 50% (2×) and 70% (5×) and 80% (4×)
Class I, number of plants (no injuries) [4]: 2
Class II, number of plants (injury: 10-40%) [4]: 17
Class III, number of plants (injury: 41-100%) [4]: 4
Class I, number of plants (no injuries) [5]: 1
Class II, number of plants (injury: 10-40%) [5]: 13
Class III, number of plants (injury: 41-100%) [5]: 9
Class I, number of plants (no injuries) [6]: 0
Class II, number of plants (injury: 10-40%) [6]: 0
Class III, number of plants (injury: 41-100%) [6]: 20
N^o of shoots completely bleached ([7]; 1 μM): 10
N^o of shoots with intermediate bleaching ([7]; 1 μM): 19
N^o of shoots without bleaching ([7]; 1 μM): 28
N^o of shoots completely bleached ([7]; 5 μM): 36
N^o of shoots with intermediate bleaching ([7]; 5 μM): 21
N^o of shoots without bleaching ([7]; 5 μM): 0
N^o of shoots completely bleached ([8]; 1 μM): 12
N^o of shoots with intermediate bleaching ([8]; 1 μM): 19
N^o of shoots without bleaching ([8]; 1 μM): 27
N^o of shoots completely bleached ([8]; 5 μM): 58
N^o of shoots with intermediate bleaching ([8]; 5 μM): 2
N^o of shoots without bleaching ([8]; 5 μM): 0
bleaching symptoms of events [9]: Two of the eight events didn't show any bleaching phenotype; also recorded: One event showed transitory light bleaching symptoms but recovered 14 days after tembotrione application; also recorded: remaining five events exhibited the bleaching like non-transgenic wild-type soybean plant
